Experimental data as given in patent publication US20230114728A1 (Venatorx Pharmaceuticals, Inc., priority 2019, published 2023).
≈ marks a conversion by molar mass, not a printed value.

Tests used:
E. coli K12 PBP3 = target: T1, E. coli K12 PBP3 (Escherichia coli, UniProt P0AD68); assay: biochemical; assay type: binding
T1 construct: made in house
Method in brief: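 A. baumannii PBP2 (2.5 μM) and PBP3 (0.2 μM) were run in 25 mM Tris pH 8.0 buffer with Tween 20; E. coli PBP3 (1.5 μM) and N. gonorrhoeae PBP2 ([…]) in 50 mM Hepes pH 8.0 buffer.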

[1] = test system: N. gonorrhoeae ATCC 49226; assay: Liquid broth MIC in Fastidious broth; assay type: cell-based; conditions: Neisseria gonorrhoeae, ATCC49226; N. gonorrhoeae strain ATCC 49226; Fastidious broth; read-out: Minimum Inhibitory Concentration, N. gonorrhoeae ATCC 49226
Method in brief: (§1)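 Colonies were swabbed from chocolate agar after 24 h growth and standardised by optical density at 600 nm. Compounds were serially diluted twofold in Fastidious broth, and bacteria added to give 5×10^5 CFU/mL. After about 24 h at 36 °C in 5% CO2, the lowest concentration allowing under 10% growth was taken as MIC.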

N. gonorrhoeae FA1090 = assay: Liquid broth MIC in Fastidious broth; assay type: cell-based; conditions: Neisseria gonorrhoeae; N. gonorrhoeae strain FA1090; Fastidious broth; read-out: Minimum Inhibitory Concentration, N. gonorrhoeae FA1090
Method in brief: as §1

N. gonorrhoeae H041 = assay: Liquid broth MIC in Fastidious broth; assay type: cell-based; conditions: Neisseria gonorrhoeae, H041, read-out: Minimum Inhibitory Concentration, N. gonorrhoeae H041
Method in brief: (§2)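 Mosaic-PBP2 strains grown 24 h on chocolate agar (36 °C, 5% CO2), then direct-suspended in saline and OD600-adjusted. Twofold compound dilutions in Fastidious broth inoculated at 5×10^5 CFU/mL and incubated ~24 h at 36 °C, 5% CO2. MIC read visually as lowest concentration with <10% growth versus full-growth wells.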

N. gonorrhoeae WHO G = assay: Liquid broth MIC in Fastidious broth; assay type: cell-based; conditions: Neisseria gonorrhoeae; N. gonorrhoeae strain WHO G; Fastidious broth; read-out: Minimum Inhibitory Concentration, N. gonorrhoeae WHO G
Method in brief: as §1

N. gonorrhoeae WHO K = assay: Liquid broth MIC in Fastidious broth; assay type: cell-based; conditions: Neisseria gonorrhoeae, read-out: Minimum Inhibitory Concentration, N. gonorrhoeae WHO K
Method in brief: as §2

N. gonorrhoeae WHO L = assay: Liquid broth MIC in Fastidious broth; assay type: cell-based; conditions: Neisseria gonorrhoeae; N. gonorrhoeae strain WHO L; Fastidious broth; read-out: Minimum Inhibitory Concentration, N. gonorrhoeae WHO L
Method in brief: as §1

N. gonorrhoeae WHO Q = assay: Liquid broth MIC in Fastidious broth; assay type: cell-based; conditions: Neisseria gonorrhoeae, read-out: Minimum Inhibitory Concentration, N. gonorrhoeae WHO Q
Method in brief: as §2

N. gonorrhoeae WHO Z = assay: Liquid broth MIC in Fastidious broth; assay type: cell-based; conditions: Neisseria gonorrhoeae, read-out: Minimum Inhibitory Concentration, N. gonorrhoeae WHO Z
Method in brief: as §2

T1 sequence (P0AD68 1-577): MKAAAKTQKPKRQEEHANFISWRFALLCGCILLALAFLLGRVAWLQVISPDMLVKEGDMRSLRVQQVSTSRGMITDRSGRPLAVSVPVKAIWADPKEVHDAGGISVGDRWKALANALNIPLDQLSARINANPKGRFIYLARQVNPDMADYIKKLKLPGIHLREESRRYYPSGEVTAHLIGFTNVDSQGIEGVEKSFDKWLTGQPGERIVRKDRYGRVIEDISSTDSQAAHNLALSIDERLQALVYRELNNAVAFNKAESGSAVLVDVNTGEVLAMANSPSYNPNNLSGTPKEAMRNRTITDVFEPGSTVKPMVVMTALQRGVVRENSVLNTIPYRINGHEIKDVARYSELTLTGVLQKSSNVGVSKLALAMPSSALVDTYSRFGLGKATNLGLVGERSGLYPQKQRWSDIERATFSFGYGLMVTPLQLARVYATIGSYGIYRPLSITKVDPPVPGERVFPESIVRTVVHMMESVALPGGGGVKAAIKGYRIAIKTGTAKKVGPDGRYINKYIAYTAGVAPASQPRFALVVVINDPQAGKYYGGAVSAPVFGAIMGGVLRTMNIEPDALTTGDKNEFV

| SMILES | EC50 (E. coli K12 PBP3) [µM] | MIC [1] [µg/mL] | MIC (N. gonorrhoeae FA1090) [µg/mL] | MIC (N. gonorrhoeae H041) [µg/mL] | MIC (N. gonorrhoeae WHO G) [µg/mL] | MIC (N. gonorrhoeae WHO K) [µg/mL] | MIC (N. gonorrhoeae WHO L) [µg/mL] | MIC (N. gonorrhoeae WHO Q) [µg/mL] | MIC (N. gonorrhoeae WHO Z) [µg/mL] |
| --- | --- | --- | --- | --- | --- | --- | --- | --- | --- |
| CCN1CCN(C(=O)N[C@H](C(=O)N[C@H]2Cc3ccc(F)c(C(=O)O)c3OB2O)c2c(F)cc(O)c(O)c2Cl)C(=O)C1=O (single isomer, unassigned) [Example 125] | > 500 | > 64 | > 64 | > 64 | > 64 | > 64 | > 64 | > 64 | > 64 |
| NCCN1CCN(C(=O)N[C@@H](C(=O)N[C@H]2Cc3cccc(C(=O)O)c3OB2O)c2ccc(O)c(F)c2F)C(=O)C1=O (single isomer, unassigned) [Example 170] | < 30 | 4 to 8 (≈ 6.95 to 13.9 µM) | 0.25 to 0.5 (≈ 0.435 to 0.869 µM) | > 64 | 4 to 8 (≈ 6.95 to 13.9 µM) | > 64 | > 64 | > 64 | > 64 |
| NCCN1CCN(C(=O)N[C@H](C(=O)N[C@H]2Cc3cccc(C(=O)O)c3OB2O)c2cc(F)c(O)c(F)c2)C(=O)C1=O (single isomer, unassigned) [Example 158] | 30 to 500 | > 64 | 4 to 8 (≈ 6.95 to 13.9 µM) | > 64 | 16 to 32 (≈ 27.8 to 55.6 µM) | > 64 | > 64 | > 64 | > 64 |
| NS(=O)(=O)Nc1cccc(C(NC(=O)N2CCN(Cc3c(F)cc(O)c(O)c3Cl)C(=O)C2=O)C(=O)N[C@H]2Cc3cccc(C(=O)O)c3OB2O)c1 (stereo partly drawn) [Example 131, (3R)-3-(2-(4-(2-chloro-6-fluoro-3,4-dihydroxybenzyl)-2,3-dioxopiperazine-1-carboxamido)-2-(3-(sulfamoylamino)phenyl)acetamido)-2-hydroxy-3,4-dihydro-2H-benzo[e][1,2]oxaborinine-8-carboxylic acid] | < 30 | > 64 | 16 to 32 (≈ 21.4 to 42.7 µM) | > 64 | > 64 | > 64 | > 64 | > 64 | > 64 |
| CCN1CCN(C(=O)NC(C(=O)N[C@H]2Cc3cccc(C(=O)O)c3OB2O)c2cccc(C(=O)O)c2)C(=O)C1=O (stereo partly drawn) [Example 113, (3R)-3-(2-(3-carboxyphenyl)-2-(4-ethyl-2,3-dioxopiperazine-1-carboxamido)acetamido)-2-hydroxy-3,4-dihydro-2H-benzo[e][1,2]oxaborinine-8-carboxylic acid] | < 30 | 4 to 8 (≈ 7.24 to 14.5 µM) | 0.25 to 0.5 (≈ 0.453 to 0.905 µM) | > 64 | 4 to 8 (≈ 7.24 to 14.5 µM) | > 64 | > 64 | 16 to 32 (≈ 29 to 57.9 µM) | 16 to 32 (≈ 29 to 57.9 µM) |
| CCN1CCN(C(=O)NC(C(=O)N[C@H]2Cc3cccc(C(=O)O)c3OB2O)c2cc(F)c(O)c(F)c2F)C(=O)C1=O (stereo partly drawn) [Example 172, (3R)-3-(2-(4-ethyl-2,3-dioxopiperazine-1-carboxamido)-2-(2,3,5-trifluoro-4-hydroxyphenyl)acetamido)-2-hydroxy-3,4-dihydro-2H-benzo[e][1,2]oxaborinine-8-carboxylic acid] | < 30 | 1 to 2 (≈ 1.73 to 3.46 µM) | < 0.125 | 16 to 32 (≈ 27.7 to 55.3 µM) | 0.25 to 0.5 (≈ 0.432 to 0.865 µM) | 4 to 8 (≈ 6.92 to 13.8 µM) | 4 to 8 (≈ 6.92 to 13.8 µM) | 4 to 8 (≈ 6.92 to 13.8 µM) | 1 to 2 (≈ 1.73 to 3.46 µM) |
| NCCN1CCN(C(=O)NC(C(=O)N[C@H]2Cc3cccc(C(=O)O)c3OB2O)c2ccc(C(=O)O)c(Cl)c2)C(=O)C1=O (stereo partly drawn) [Example 153, (3R)-3-(2-(4-(2-aminoethyl)-2,3-dioxopiperazine-1-carboxamido)-2-(4-carboxy-3-chlorophenyl)acetamido)-2-hydroxy-3,4-dihydro-2H-benzo[e][1,2]oxaborinine-8-carboxylic acid] | < 30 | 16 to 32 (≈ 26.6 to 53.2 µM) | 1 to 2 (≈ 1.66 to 3.32 µM) | > 64 | 4 to 8 (≈ 6.65 to 13.3 µM) | 16 to 32 (≈ 26.6 to 53.2 µM) | > 64 | 16 to 32 (≈ 26.6 to 53.2 µM) | 16 to 32 (≈ 26.6 to 53.2 µM) |
| NCCN1CCN(C(=O)N[C@@H](C(=O)N[C@H]2Cc3cccc(C(=O)O)c3OB2O)c2cc(F)c(O)c(F)c2F)C(=O)C1=O (single isomer, unassigned) [Example 168] | < 30 | 4 to 8 (≈ 6.74 to 13.5 µM) | 0.25 to 0.5 (≈ 0.421 to 0.843 µM) | > 64 | 1 to 2 (≈ 1.69 to 3.37 µM) | 16 to 32 (≈ 27 to 53.9 µM) | 16 to 32 (≈ 27 to 53.9 µM) | 16 to 32 (≈ 27 to 53.9 µM) | 16 to 32 (≈ 27 to 53.9 µM) |
